Source: publication PMC6271638, “Synthesis of New 1,2,3-Triazol-4-yl-quinazoline Nucleoside and Acyclonucleoside Analogues” (Molecules, 2014)
Read-outs that look alike come from different tables or passages of the source.

Assays:
[1] = tested on: HCV replicon (genotype 1b, CON1); experiment: Anti-HCV activity, 3-day cell culture assay in HCV-replicon-containing cell line AVA5; assay type: cell-based, hepatitis C virus; conditions: AVA5 cells (genotype 1b, CON1), 3-day assay, read-out: IC50, concentration of compound achieving 50% inhibition of the replicon system
Procedure: Antiviral activity was assessed in a 3-day cell culture assay using the HCV-replicon-containing cell line, AVA5 (genotype 1b, CON1) (provided to GUMC by Apath, Inc., Brooklyn, NY, USA) as previously described.

Huh 5.2 cells = experiment: Cytotoxicity (50% extinction of cells) in the anti-HCV replicon assay; assay type: cell-based; conditions: 3-day cell culture assay, read-out: CC50, concentration of compound required for 50% extinction of Huh 5.2 cells
[2] = as above; assay type: cell-based; conditions: human; Huh 5.2 cells; 3-day cell culture assay; read-out: CC50, concentration of compound required for 50% extinction of Huh 5.2 cells

Row | Compound | IC50 [1] | CC50 (Huh 5.2 cells) | IC50 ([1]; Hepatitis C virus, 72 h) | CC50 at 3 day [2]
1 | 3-((1-(β-D-Ribofuranos-1-yl)-1,2,3-triazol-4-yl)methyl)-2-methylquinazolin-4-one [Compound 7d] | > 10 µM | ≥ 100 µM |  | 
2 | 3-((1-(β-D-Ribofuranos-1-yl)-1,2,3-triazol-4-yl)methyl)quinazolin-4-one [Compound 7g] | > 10 µM | ≥ 100 µM |  | 
3 | 4-((1-(β-D-Ribofuranos-1-yl)-1,2,3-triazol-4-yl)methoxy)-2-phenylquinazoline [Compound 7a] | > 10 µM | ≥ 50 µM |  | 
4 | C[C@@]1(O)[C@H](O)[C@@H](CO)O[C@H]1n1ccc(N)nc1=O [Compound 2CmeCyt, reference compound] | 1.5 µM | > 300 µM |  | 
5 | OCCOCn1cc(COc2nc(-c3ccccc3)nc3ccccc23)nn1 [Compound 7b, 2-((4-((2-Phenylquinazolin-4-yloxy)methyl)-1,2,3-triazol-1-yl)methoxy)etanol] |  |  | > 10 µM | ≥ 100 µM
6 | OCCCCn1cc(COc2nc(-c3ccccc3)nc3ccccc23)nn1 [Compound 7c, 4-(4-((2-Phenylquinazolin-4-yloxy)methyl)-1,2,3-triazol-1-yl)butan-1-ol] |  |  | > 10 µM | ≥ 50 µM
7 | Cc1nc2ccccc2c(=O)n1Cc1cn(COCCO)nn1 [Compound 7e, 2-((4-((2-Methyl-4-oxoquinazolin-3-yl)methyl)-1,2,3-triazol-1-yl)methoxy)ethanol] |  |  | > 10 µM | ≥ 50 µM
8 | Cc1nc2ccccc2c(=O)n1Cc1cn(CCCCO)nn1 [Compound 7f, 4-(4-((2-Methyl-4-oxoquinazolin-3-yl)methyl)-1,2,3-triazol-1-yl)butan-1-ol] |  |  | > 10 µM | ≥ 50 µM
9 | O=c1c2ccccc2ncn1Cc1cn(COCCO)nn1 [Compound 7h, 2-((4-((4-Oxoquinazolin-3-yl)methyl)-1,2,3-triazol-1-yl)methoxy)ethanol] |  |  | > 10 µM | ≥ 50 µM
10 | O=c1c2ccccc2ncn1Cc1cn(CCCCO)nn1 [Compound 7i, 4-(4-((4-Oxoquinazolin-3-yl)methyl)-1H-1,2,3-triazol-1-yl)butan-1-ol] |  |  | > 10 µM | ≥ 50 µM
